Patent US20140349943A1, “TOPICAL FORMULATIONS OF CHEMERIN C15 PEPTIDES FOR THE TREATMENT OF DERMATOLOGICAL CONDITIONS” (priority 2011, published 2014)
Where “and” joins values, the source holds several entries; their conditions need not be identical. Identical values can stand only once. Peptide text beside a SMILES is read from it.

Key:
[1] = tested on: mice; experiment: Contact hypersensitivity assay; format: in vivo, mouse; conditions: TNCB hapten; ear thickness; expected
Procedure: In this example, the therapeutic activity of a human chemerin C15 peptide is tested in a contact hypersensitivity assay, which is an in vivo assay of cell-mediated immune function and a model for human allergic contact dermatitis. In this assay, epidermal cells are exposed to exogenous haptens which results in a delayed-type hypersensitive reaction that can be measured and quantified. The Langerhans cell, which is an Ia^+, bone marrow-derived, epidermal cell, initiates sensitization to haptens by presenting antigens to CD4-bearing T lymphocytes, which, in turn, secrete lymphokines and recruit other cells to the site of the reaction.
Contact hypersensitivity consists of the afferent or initial sensitizing phase, and the efferent or elicitation phase. During the efferent phase, when epidermal cells encounter a particular antigen to which they have previously been exposed, localized swelling occurs (in rodents) and in humans results in eczema of the skin.
In an exemplary protocol, mice are shaved and the skin of their abdomens exposed to a hapten. After 6 days (the afferent phase), the baseline ear thickness is measured prior to initiation of the efferent phase. Finally, the ear is treated epicutaneously with the hapten solution and ear thickness is measured at approximately 24 hr. […]

[2] = tested on: K5.Stat3C recombinant mice; experiment: K5.Stat3C mouse model of psoriasis (TPA induced lesions); format: in vivo; conditions: expected
Procedure: In this example, the therapeutic activity of a human chemerin C15 peptide is tested in a mouse model of psoriasis. K5.Stat3C recombinant mice resemble human psoriasis based on clinical, histological, immunophenotypic, and biochemical criteria used to evaluate animal models of psoriasis. The K5.Stat3C mice constitutively express activated […] in keritinocytes and epidermal hyperplasia upon stimulation with 12-0-tetradecanoylphorbol-13-acetate (TPA) topical treatment.
In an exemplary protocol, mice are treated topically on the ear with TPA (e.g. 3.4 nmol TPA in acetone) or acetone control to induce skin lesions 3 times per week for 4-8 weeks. Real-time PCR in skin samples is used to confirm upregulation of cytokine expression, including IL-23, IL012, TNF-α, IL-β, and/or IL-6. Following induction of skin lesions, formulations comprising the human chemerin C15 peptide or vehicle control are applied topically to the skin lesions daily for 6-12 days. Improvement in the lesions is assessed daily.

[3] = tested on: IFNγ/LPS stimulated human macrophages; experiment: Cytokine secretion by IFNγ/LPS stimulated human macrophages (Luminex); format: cell-based; conditions: 16 hours post-stimulation
[4] = Stability of C15 in homogenates of frozen and fresh human skin; format: in vitro ADME
Procedure: An initial study was performed comparing stability of human C15 versus Mouse C15. Homogenates of frozen and fresh human skin were prepared to evaluate the degradation of C15 in skin. Frozen or fresh human skin were separately minced and homogenized in 3 ml water and the supernatant isolated. Supernatant was mixed with solutions of mouse or human C15 to yield a 0.5 mg/ml C15 solution. Each solution was incubated at 37° C. and samples were taken at 0, 1, 2 and 24 hours for analysis of C15 (FIG. 3).

[5] = Franz diffusion cell skin penetration, C15 ointment; format: in vitro ADME, human
Procedure: The objective of the study was to determine whether human chemerin C15 peptide would diffuse through in vitro human skin maintained under flow-through conditions in Franz cells where the C15 peptide is administered as an ointment. Human chemerin C15 peptide was prepared as an ointment as described in Example 4. A 10% solution of the C15 ointment was prepare immediately prior to skin application. […] human skin obtained from abdominoplasty was maintained in tissue media and antibiotics and used within 3 days.
A standard Franz diffusion cell (LGA, Berkeley, Calif.) was used under static conditions (n=3). Approximately 200 μl of the 10% ointment solution was transferred to the surface of the skin and distributed on the surface by spatula. A thin liner was then applied for light pressure to the skin surface for 5 min after which the diffusion cell was occluded and maintained for 24 hours. After this time, the ointment was recovered by scraping a spatula over the skin surface and transferring the retained material to a 50/50 water-chloroform solution. The epidermis and dermis were then separated by heat and the epidermis extracted with a 50/50 water-chloroform solution. The epidermis was then transferred to a second tube and homogenized in PBS containing 0.1% protease inhibitor. The dermis was minced and homogenized in PBS containing 0.1% protease inhibitor. The receptor fluid was recovered and concentrated under vacuum. Ointment without C15 was applied to skin and the skin sampled in the same manner as a control (n=2).
C15 recovery from the dosing material, epidermis, and receptor fluid was determined by HPLC. C15 concentration in the dermis was determine by LC/MS. The skin surface and epidermis recoveries and epidermis homogenate samples were analyzed using the following reversed phase HPLC conditions:
The dermis samples were analyzed using the following LC/MS/MS conditions: […]

[6] = after 24 hours, 37° C., 0.5 mg/ml
[7] = ointment, 24 hours, listed as C15

C[C@H](N)C(=O)NCC(=O)N[C@@H](CCC(=O)O)C(=O)N[C@@H](CC(=O)O)C(=O)N1CCC[C@H]1C(=O)N[C@@H](Cc1c[nH]cn1)C(=O)N[C@@H](CO)C(=O)N[C@@H](Cc1ccccc1)C(=O)N[C@@H](Cc1ccc(O)cc1)C(=O)N[C@@H](Cc1ccccc1)C(=O)N1CCC[C@H]1C(=O)NCC(=O)N[C@@H](CCC(N)=O)C(=O)N[C@@H](Cc1ccccc1)C(=O)N[C@@H](C)C(=O)O [C15 (human)] (H-AGEDPHSFYFPGQFA-OH; N-terminus and C-terminus assumed)
allergic response (contact hypersensitivity) [1]: prevention, suppression and/or treatment of the allergic response | cytokine expression in the psoriatic lesions ([2]; topical daily for 6-12 days): decreased cytokine expression | psoriatic phenotype of the epidermis ([2]; visual inspection and histological examination): improvement in the psoriatic phenotype of the epidermis | inhibition of human macrophage secretion of IL-1β ([3]; 1 pM): approximately 45% | inhibition of human macrophage secretion of RANTES ([3]; 1 pM): ~65% | inhibition of human macrophage secretion of IL-12p40 [3]: approximately 55% | C15 degradation in homogenate from fresh skin [4, 6]: 98% | C15 degradation in homogenate from frozen skin [4, 6]: 25% | relative stability in skin homogenate ([4]; human vs mouse C15): more stable than mouse C15 | [C15] in Receptor Fluid (5 mL) ([5]; Ointment, fresh human skin, after 24 hrs): <10 nM | recovery at 24 h ([5]; female, human, ointment, 24 hours, mass balance, read-out: Total % recovery): 104% | epidermis and dermis combined, share of the applied dose ([5]; ointment): < 1% | Receptor fluid, C15 ([5]; ointment, 24 hours, HPLC LLQ 150 ng/ml): <LLQ | Dermis homogenate, % of applied [5, 7]: 0.00% and 0.02% and 0.12% | Epidermis, % of applied [5, 7]: 70.2% and 64.1% and 71.2% | Epidermis, C15 [5, 7]: 1.53 mg and 2.25 mg and 1.45 mg | Skin Surface, % of applied [5, 7]: 33.6% and 33.3% and 40.6% | Skin Surface, C15 recovered [5, 7]: 0.74 mg and 1.17 mg and 0.83 mg | Total % recovery ([5]; ointment, 24 hours, mass balance, listed as C15): 97.4% and 111.8%
